Reference: article PMC12684313, “Controlled Dual Activation of Rhenium(I) Photosensitizers and Profluorophores/Prodrugs via a Dissociative Bioorthogonal Tetrazine–Isonitrile Reaction” (Angewandte Chemie (International Ed. in English), 2025)
Read-outs that look alike come from different tables or passages of the source. One block for each compound: values may come before it.

What was measured:
HeLa cells = assay: MTT assay, (photo)cytotoxicity toward HeLa cells; format: cell-based
Experimental: (§1) HeLa and HEK-293 cells were seeded in a 96-well flat-bottomed microplate (≈ 10,000 cells per well) in growth medium (100 µL) and incubated at 37°C under a 5% CO2 atmosphere for […]
(§2) 48 h. The growth medium was removed, and then incubated with either fresh growth medium or complexes 1a – 3a, with concentrations ranging from 10–5 to 10−8 M, in growth medium/DMSO (99:1, v/v) at 37°C for 3 h. The growth medium was removed and replaced with either fresh growth medium or ICPrc-Bn (200 µM) in growth medium/DMSO (99:1, v/v) at 37°C for 4 h. Wells containing untreated cells were used as a blank control. Wells containing cells treated with ICPrc-Bn (200 µM) alone for 4 h were used as a complex-free control. For evaluation of photocytotoxicity, the treated cells were incubated in phenol red-free growth medium (100 µL). One of the microplates was irradiated at 365 nm (5 mW cm−2) with an LED cellular photocytotoxicity irradiator (PURI Materials, Shenzhen, China) for […], whereas the other one was kept in the dark for 10 min. The cells were then incubated in fresh growth medium (100 µL) in the dark for 24 h. A solution containing MTT in PBS (10 µL, 5 mg mL−1) and fresh growth medium (90 µL) was added to each well. The microplate was incubated at 37°C for 4 h. The growth medium was removed, and DMSO (200 µL) was added to each well.
(§3) After 20 min, the absorbance of the solutions at 570 nm was measured with a Multiskan SkyHigh Microplate Spectrophotometer (Thermo Scientific). The IC50 values of the complex were determined from the dose dependence of surviving cells after the treatment using the OriginPro 8.0 software package. For dual-release studies, the cells were incubated with complex 3a, with concentrations ranging from 10–5 to 10−8 M, in growth medium/DMSO (99:1, v/v) at 37°C for 3 h, and replaced with either fresh growth medium or ICPrc-Dox (10 or 50 µM) in growth medium/DMSO (99:1, v/v) at 37°C for 4 h. Wells containing cells treated with ICPrc-Dox (10 or 50 µM) alone for 4 h were used as a complex-free control. Wells containing cells treated with cisplatin (3 h) or Dox (4 h), with concentrations ranging from 10–5 to 10−8 M, in growth medium/DMSO (99:1, v/v) at 37°C were used as positive controls. Furthermore, to evaluate the maximum therapeutic effect of the dual release, concentrations of complex 3b and Dox were serially diluted in a 1:1 ratio to serve as a reference, assuming similar cellular uptake […]
(§4) of complex 3a with 3b and ICPrc-Dox with Dox. Briefly, HeLa cells were incubated with complex 3b, with concentrations ranging from 10–5 to 10−8 M, in growth medium/DMSO (99:1, v/v) at 37°C for 3 h, and replaced with either fresh growth medium or Dox, with concentrations ranging from 10–5 to 10−8 M, in growth medium/DMSO (99:1, v/v) at 37°C for 4 h.

[1] = 1O2 generation quantum yield from 1O2 emission at around 1270 nm; format: physicochemical; details: aerated CH3CN, 298 K; λex = 350 nm; reference phenalenone
Experimental: (§5) The ^1O2 generation efficiencies of the complexes were evaluated by monitoring the emission band of ^1O2 centered at around 1270 nm^[ [34], [35] ^] in aerated CH3CN. […] Considering the pH‐dependent emission properties of complexes 1b–3b, we believe that their ^1O2 photosensitization efficiencies would also be influenced by pH. Taking complex 3b as an example, its ^1O2 generation efficiency was evaluated in aerated McIlvaine buffer solutions at various pH levels by the 9,10‐anthracenediyl‐bis(methylene)dimalonic acid (ABDA) assay.^[ [36] ^] […] Thus, the TzMe complexes are anticipated to function as pH‐sensitive phosphorogenic bioorthogonal probes, enabling simultaneous detection and photodynamic therapy in lysosomal compartments (pH ≈ 4.5–5.0)^[ [37], [38] ^] and acidic TME.

[2] = 1O2 generation quantum yield by ABDA assay in McIlvaine buffer; format: physicochemical; details: 298 K
Experimental: as §5, with “TME. […]” for “TME.”
where the subscripts s and r refer to the sample and reference solutions, respectively, Φ is 1O2 quantum yield, m is the slope of a linear fit of the change of absorbance at 378 nm against the irradiation time, B is 1 – 10–AL, A is absorbance at the excitation wavelength, and L is path […]
To confirm the liberation of ICPr/ICPrc -caged compounds during the reaction, the concurrent release of compounds from their respective tetrazine and ICPr/ICPrc caging groups was studied by RP-HPLC analysis. Complex 3a (50 µM) and ICPr -coum (40 µM) were incubated in aerated McIlvaine buffer (pH 7.4)/DMSO (4:1, v/v) at 37°C for 18 h. The reaction mixture was subjected to HPLC analysis. The HPLC analysis was performed using an Agilent analytical column (ZORBAX Eclipse Plus C18 column: 4.6 × 150 mm, 5 µm) with a linear gradient of 0 − 100% solvent B over 12 min and a flow rate of 1 mL min −1. The emission was monitored at the emission peak maxima of the released products, umbelliferone (also known as 7 - hydroxycoumarin) (λex = 350 nm, λem = 460 nm) and complex 3b (λex = 350 nm, λem = 562 nm). […] The emission spectrum was recorded on a HORIBA FluoroMax-4 spectrofluorometer. […] The reaction was monitored by HPLC analyses after incubation for 4 and 24 h.

[3] = MTT assay, (photo)cytotoxicity toward HeLa cells; format: cell-based; details: human, HeLa cells, read-out: cell viability
Experimental: as §1, §2, §3, §4

[4] = MTT assay, (photo)cytotoxicity toward HEK-293 cells; format: cell-based; details: human, HEK-293 cells, read-out: cell viability
Experimental: as §1, §2
(§6) After 20 min, the absorbance of the solutions at 570 nm was measured with a Multiskan SkyHigh Microplate Spectrophotometer (Thermo Scientific). The IC50 values of the complex were determined from the dose dependence of surviving cells after the treatment using the OriginPro 8.0 software package. […]

[5] = Stability of ICPr/ICPrc derivatives in serum (HPLC); format: in vitro ADME; details: 25 µM in 25% FBS, 37 °C, dark
Experimental: was incubated with ICPr-coum (80 µM) in aerated McIlvaine buffer (pH 7.4 or 5.0)/CH3CN (4:1, v/v) at 37°C. The reactions at different time points were quenched by the addition of 900 µL of cold H2O/CH3CN (1:1, v/v) and then analyzed by RP-HPLC. The HPLC analysis was conducted following the elution conditions specified for the reaction kinetic studies. The release yields were plotted against time. The half-lives (t1/2) were defined as the time required for the concentration of the reactant to decrease by half of its initial quantity, obtained through an exponential fit of the curve. The release yields were defined as the quantity of the final product, umbelliferone, liberated in the reaction. Furthermore, to evaluate the effect of ether versus carbamate linkages within the ICPr/ICPrc moiety on release kinetics, the half-lives of ICPr-coum, ICPr-fluorescein, and ICPrc-Dox were determined by HPLC analyses. Equimolar mixtures of complex 3a (50 µM) and each ICPr/ICPrc derivative (50 µM) were incubated in aerated McIlvaine buffer (pH 7.4)/DMSO (4:1, v/v) at 37°C. The reactions at different time points were quenched by the addition of 900 µL of cold H2O/CH3CN (1:1, v/v) and then […]
Stability of ICPr/ICPrc Derivatives in Serum
ICPr-fluorescein or ICPrc-Dox (25 µM) was incubated in 25% FBS at 37 °C in the dark for 48 h. […]

HEK‐293 cells = assay: MTT assay, (photo)cytotoxicity toward HEK-293 cells; format: cell-based
Experimental: as §1, §2, §6

[6] = ICPrc‐Bn (200 µM) alone for 4 h, subsequently irradiated
[7] = – ICPrc‐Bn, irradiation at 365 nm (5 mW cm−2) for 5 min, read-out: IC50,light
[8] = ICPrc‐Dox (10 or 50 µM) alone, dark and irradiation

SMILES: O=S(=O)([O-])C(F)(F)F.O=[C]=[Re-2]1(=[C]=O)(=[C]=O)([n+]2cccc(O)c2)[n+]2ccc(-c3ccccc3)c3ccc4c(-c5ccccc5)cc[n+]1c4c32 [complex 3b, [Re(N^N)(CO)3(py‐OH)](CF3SO3)]
- PI (IC50,dark/IC50,light) (HeLa cells; Table S10): 6
- IC50 (HeLa cells; Table S10, 3b 3 h then fresh medium or Dox (1:1 ratio) 4 h, dark, read-out: IC50,dark): 29 µM
- IC50 (HeLa cells; Table S10, 3b 3 h then fresh medium or Dox (1:1 ratio) 4 h, irradiation at 365 nm (5 mW cm−2) for 5 min, read-out: IC50,light): 5.1 µM
- 1O2 generation quantum yield (ΦΔ) [1]: 0.63
- 1O2 generation quantum yield (ΦΔ) ([2]; aerated McIlvaine buffer pH 3.0/CH3CN (4:1, v/v)): 0.24
- 1O2 generation quantum yield (ΦΔ) ([2]; aerated McIlvaine buffer pH 5.0/CH3CN (4:1, v/v)): 0.12
- 1O2 generation quantum yield (ΦΔ) ([2]; aerated McIlvaine buffer pH 7.4/CH3CN (4:1, v/v)): Negligible

SMILES: [C-]#[N+]CCCOC(=O)NCc1ccccc1 [ICPrc‐Bn, 3‐isocyanopropyl benzylcarbamate, reference compound]
- viability at 4 h, 200 µM [3, 6]: > 98%
- viability at 4 h, 200 µM [4, 6]: > 98%

- time stable in serum [5]: at least 48 h
SMILES: [C-]#[N+]CCCOc1ccc2c(-c3ccccc3C(=O)O)c3ccc(=O)cc-3oc2c1 [ICPr‐fluorescein]

SMILES: COc1cccc2c1C(=O)c1c(O)c3c(c(O)c1C2=O)C[C@@](O)(C(=O)CO)C[C@@H]3O[C@H]1C[C@H](N)[C@H](O)[C@H](C)O1 [Dox, doxorubicin, reference compound]
- IC50 (HeLa cells; Homo sapiens, Table 2, no ICPrc‐Dox (3a 3 h then fresh medium 4 h; Dox 4 h), dark, read-out: IC50,dark): 5.8 ± 0.6 µM
- IC50 (HeLa cells; Homo sapiens, light or radiation study, 5 min, Table 2, no ICPrc‐Dox, irradiation at 365 nm (5 mW cm−2) for 5 min, read-out: IC50,light): 5.3 ± 0.6 µM
- PI (IC50,dark/IC50,light) (HeLa cells; Table 2, no ICPrc‐Dox): 1
- IC50 (HEK‐293 cells; Homo sapiens, HEK293, Table 2, no ICPrc‐Dox, dark, read-out: IC50,dark): > 50 µM
- IC50 (HEK‐293 cells; Homo sapiens, HEK293, light or radiation study, 5 min, Table 2, no ICPrc‐Dox, irradiation at 365 nm (5 mW cm−2) for 5 min, read-out: IC50,light): 43 ± 2 µM
- PI (IC50,dark/IC50,light) (HEK‐293 cells; Table 2, no ICPrc‐Dox): > 1

SMILES: N.N.[Cl][Pt][Cl] [Cisplatin, cisplatin, reference compound]
- IC50 (HeLa cells; – ICPrc‐Bn (complex 3 h, fresh medium 4 h; cisplatin 3 h), dark, read-out: IC50,dark): > 50 µM
- IC50 (HeLa cells; [7]): > 50 µM
- IC50 (HEK‐293 cells; – ICPrc‐Bn, dark, read-out: IC50,dark): > 50 µM
- IC50 (HEK‐293 cells; [7]): > 50 µM

SMILES: [C-]#[N+]CCCOC(=O)NC1CC(OC2CC(O)(C(=O)CO)Cc3c(O)c4c(c(O)c32)C(=O)c2c(OC)cccc2C4=O)OC(C)C1O (centres unmarked) [ICPrc‐Dox, N-(3-isocyanopropyl-1-carbamoyl)doxorubicin, reference compound]
- viability at 4 h [3, 8]: > 98%
- viability at 4 h [4, 8]: > 98%
- time stable in serum [5]: over 48 h
